Assay results reported in patent US11260096B2, “Compositions for creatine supplementation in creatine non-responders” (ThermoLife International, LLC, priority 2019, dated 2022).
Where “and” joins values, the source holds several entries; their conditions need not be identical. Equal values may be shown once. Entries after “also recorded” stand apart in the source; their conditions may differ.

Key:
[1] = adverse events evaluated via open-ended questionnaires; format: in vivo, human; settings: 5-day intervention, single participants
Experimental: Estimated glomerular filtration rate (eGFR) was calculated by the abbreviated MDRD equation (Stevens et al., Am J Kidney Dis. 2007; 50: 21-35). […] Twelve datasets were obtained for each individual yielding a total of 120 spectra in this study. In vivo metabolite concentrations were calculated using the muscle water signal as an internal intensity reference (Wang et al., J Magn Reson. 2014, 243: 81-84). The spectra were fitted in the time domain using a nonlinear least squares algorithm ([…]) in the Java-based magnetic resonance user interface (jMRUI) software package. […] Finally, possible adverse events of the intervention (e.g. muscle cramps, bloating, diarrhea) were evaluated via open-ended questionnaires administered during the trial.

[2] = 5-day intervention: total muscle creatine by proton magnetic resonance spectroscopy (MRS); format: in vivo, human; settings: after five-day intervention vs baseline
Experimental: Ten healthy young men (age 23.6±2.9 years, body mass index 23.8±1.5 kg/m′) were recruited and signed informed consent to voluntarily participate in this double-blind, crossover, randomized controlled trial. All experimental procedures were approved by the local institutional review board, and the study was conducted in accordance with the Declaration of Helsinki. All participants had no history of creatine supplementation (or other dietary supplements) within the 4 weeks before the study commenced. All participants also had no acute or chronic diseases as evaluated by pre-participation health check and blood profiles. All participants were required to maintain their normal activity patterns and diet during the study. […]
Washout period of 7 days was employed between all trials to prevent the residual or carry-over effects of treatments across study periods. […] Creatinine anhydrous has been produced from creatine monohydrate in an autoclave (Memmert UF 55, Schwabach, Germany) at 160° C. for 72 hours, with creatinine purity>99% in a final powder, as determined by NMR spectroscopy (Bruker Avance III 400, Billerica, Mass.). […] Venous blood samples were drawn at each time point (7 points in total) for a single-dose experiment, and serum analyzed for creatine and creatinine by modified LC-MS/MS (1200 Series LC System; Agilent Technologies Inc., Santa Clara, Calif., USA). […]

[3] = 5-day intervention: liver enzymes and estimated glomerular filtration rate (safety biomarkers); format: in vivo, human
Experimental: (§1) Ten healthy young men (age 23.6±2.9 years, body mass index 23.8±1.5 kg/m′) were recruited and signed informed consent to voluntarily participate in this double-blind, crossover, randomized controlled trial. All experimental procedures were approved by the local institutional review board, and the study was conducted in accordance with the Declaration of Helsinki. All participants had no history of creatine supplementation (or other dietary supplements) within the 4 weeks before the study commenced. All participants also had no acute or chronic diseases as evaluated by pre-participation health check and blood profiles. All participants were required to maintain their normal activity patterns and diet during the study. The participants were required to not engaged in any exhaustive exercise 24 hours before the study commenced.
Washout period of 7 days was employed between all trials to prevent the residual or carry-over effects of treatments across study periods. For the single-dose experiment, participants were administered a liquid composition that was prepared by a researcher by dissolving a powder of their respective treatment compounds in 150 mL of lukewarm water. For the 5-day intervention, the participants received five powder sachets (one per day) containing an treatment compounds. The participants were advised to stir the content of the sachet into 150 mL of lukewarm water until the powder has dissolved and to drink the liquid composition about 30 minutes before breakfast. […] Creatinine anhydrous has been produced from creatine monohydrate in an autoclave (Memmert UF 55, Schwabach, Germany) at 160° C. for 72 hours, with creatinine purity>99% in a final powder, as determined by NMR spectroscopy (Bruker Avance III 400, Billerica, Mass.). […] Venous blood samples were drawn at each time point (7 points in total) for a single-dose experiment, and serum analyzed for creatine and creatinine by modified LC-MS/MS (1200 Series LC System; Agilent Technologies Inc., Santa Clara, Calif., USA). […] For 5-day experiment, venous blood samples were drawn at baseline and at the various follow-up times, with serum analyzed for liver enzymes by an automated analyzer (Randox Laboratories Ltd., Crumlin, UK).
Estimated glomerular filtration rate (eGFR) was calculated by the abbreviated MDRD equation (Stevens et al., Am J Kidney Dis. 2007; 50: 21-35). […] In vivo metabolite concentrations were calculated using the muscle water signal as an internal intensity reference (Wang et al., J Magn Reson. 2014, 243: 81-84). […] The peak integral values of the total creatine (creatine plus phosphocreatine) signal at 3.0 ppm and the non-suppressed water signal at 4.7 ppm were quantified using curve-fitting to Gaussian lines. […]

[4] = single-dose pharmacokinetics experiment: serum creatine and creatinine by LC-MS/MS; format: in vivo, human; settings: for AUC (serum creatine) after single-dose intervention: linear-log trapezoidal method
Experimental: as §1
Washout period of 7 days was employed between all trials to prevent the residual or carry-over effects of treatments across study periods. For the single-dose experiment, participants were administered a liquid composition that was prepared by a researcher by dissolving a powder of their respective treatment compounds in 150 mL of lukewarm water. For the 5-day intervention, the participants received five powder sachets (one per day) containing an treatment compounds. The participants were advised to stir the content of the sachet into 150 mL of lukewarm water until the powder has dissolved and to drink the liquid composition about 30 minutes before breakfast. […] Clinical assessments for both experiments were carried out between 08:00 and 12:00 after an overnight fast of 12 hours. Venous blood samples were drawn at each time point (7 points in total) for a single-dose experiment, and serum analyzed for creatine and creatinine by modified LC-MS/MS (1200 Series LC System; Agilent Technologies Inc., Santa Clara, Calif., USA). To control for variance based on different hydration levels, all participants were restricted from water ingestion between the time of collecting the baseline sample and 120 minutes after administration of the treatment. For 5-day experiment, venous blood samples were drawn at baseline and at the various follow-up times, with serum analyzed for liver enzymes by an automated analyzer (Randox Laboratories Ltd., Crumlin, UK).
Where significant differences were found, the Tukey post-hoc test was employed to identify the differences. The area under the concentration-time curve (AUC) for serum creatine and creatinine were calculated using the linear-log trapezoidal method, with AUCs compared with one-way ANOVA. The significance level was set at P<0.05. Data were analyzed using the SPSS program (SPSS Inc., Chicago, Ill., USA).

[5] = cited from earlier work

| Structure (SMILES) | reported side effects / adverse events (in words) [1] | average increase in total muscle creatine levels [2] [%] | eGFR ([3]; in vivo) [mL/min/1.73 m^2] | participants with mildly reduced kidney function (eGFR 60-89 mL/min/1.73 m^2) ([3]; in vivo) [%] | AUC for serum creatinine ([4]; single oral dose) [µmol·min/L] | change in serum creatinine during the single-dose study (in words) ([4]; single oral dose) | AUC (serum creatine) after single-dose intervention ([4]; single oral dose) [µmol·min/L] | increase of total creatine content in skeletal muscles ([5]; dosages up to 30 g for a few days, human subject) | individuals who do not respond to creatine supplementation (prevalence of non-responders) ([5]; less than 10 mmol/kg dw increase in resting total muscle creatine after five days at 20 g/day) | reported side effects / adverse events (in words) ([1]; nitrate) | participants with mildly reduced kidney function (eGFR 60-89 mL/min/1.73 m^2) ([3]; 5-day intervention, n=10) [%] | eGFR ([3]; at 5-day follow-up, mean ± SD, abbreviated MDRD equation) [mL/min/1.73 m^2] | concentration at 60 min ([4]; male, human, in vivo, single oral dose (3 g CN + 3 g creatinine, 3 g CN or 3 g CRM), peak time, n=10 healthy men, read-out: average serum creatine concentration at 60 minutes post-administration) [µM] |
| --- | --- | --- | --- | --- | --- | --- | --- | --- | --- | --- | --- | --- | --- |
| CN(CC(=O)O)C(=N)N.O [CRM, creatine monohydrate] | episodes of bloating | 2.1 | 91.7 ± 8.3 | 30.0 | 607.5 ± 37.7 | remained essentially unchanged | 466.3 ± 47.9 | more than 20% | – | – | – | – | – |
| CN(CC(=O)O)C(=N)N [creatine] | – | – | – | – | – | – | – | – | about 25% and 20-30% | – | – | – | – |
| CN(CC(=O)O)C(=N)N.O=[N+]([O-])O [CN, creatine nitrate] | – | 8.0 | – | – | – | remained essentially unchanged | 622.7 ± 62.9 | – | – | irregular non-diarrheal bowel movements; also recorded: excessive sleepiness | 40.0 | 89.8 ± 8.1 | 164 ± 12.9 |
